Measurements as given in patent US20100093867A1, “Method Of Treating Genetic Disease Caused By Nonsense Mutation” (priority 2006, published 2010).

Columns and labels:
[1] = system: mouse models for muscular dystrophy; details: Patent document 1; cited from earlier work
mdx mouse [2] = experiment: Effect of administration on a muscular dystrophy mouse model; format: in vivo; details: into the stomach, 4 or 400 mg/kg/day for 7 days
Protocol: The aforementioned compound 2 was studied for its effect of administration on a muscular dystrophy mouse model. An mdx mouse was used as a muscular dystrophy mouse model. The compound 2 was administered forcibly into the stomach of an mdx mouse at a dose of 4 or 400 mg/kg/day for 7 days, and then biochemical and immuno-histochemical analyses were conducted.

mdx mouse [3] = experiment: Side effects in mice; format: in vivo; details: subcutaneous, 4 or 400 mg/kg/day for 14 days
Protocol: The aforementioned compound 2 was studied for side effects in mice.
The compound 2 was injected subcutaneously to an mdx mouse at a dose of 4 or 400 mg/kg/day for 14 days.

[4] = system: airway epithelium of patients with cystic fibrosis; details: topical administration to airway epithelium, Non-patent document 2; cited from earlier work
[5] = system: patients with Duchenne muscular dystrophy; details: Non-patent document 1; cited from earlier work

**Q.** For CN(CC(=O)O)NC(=O)C[C@H](N)C[C@@H](O)CN [negamycin], which dystrophin expression [1] is on record?
**A.** restore a dystrophin expression

**Q.** For CC(=O)NC(CC(N)=O)C(=O)O (stereo not drawn) [compound 2], which “results compared to positive control group administered with gentamicin” value (mdx mouse [2]) is on record?
**A.** favorable results compared to a positive control group administered with gentamicin

**Q.** And the “serum creatine kinase activity” value (mdx mouse [2])?
**A.** reduced

**Q.** What about the “dystrophin in muscles (e.g. hind limb)” value (mdx mouse [2]; immuno-histochemical analysis) of the same compound?
**A.** accumulated

**Q.** What about the “body weight during the administration period” value (mdx mouse [3]) of the same compound?
**A.** no decrease

**Q.** And the “hearing test that measures auditory brainstem response” value (mdx mouse [3])?
**A.** no abnormal values

**Q.** What about the “eighteen serological and biochemical tests” value (mdx mouse [3]; total protein, albumin, AST, ALT, ALP, γ-GTP, creatinine, glucose, lipids, electrolytes, bilirubin etc.) of the same compound?
**A.** no abnormal values

**Q.** With gentamicin as the compound, how does the typical electrophysiological abnormalities [4] read?
**A.** could correct

**Q.** What about the dystrophin protein [5] of the same compound?
**A.** led to accumulation of dystrophin protein
